These are literature values, as cited in patent publication US20220225651A1, “STEVIOL GLYCOSIDE AND FERULIC ACID FORMULATIONS FOR FOOD AND BEVERAGES” (Sweegen, Inc., priority 2021, published 2022).

The conditions of this series: sweetness relative to sucrose.

With `C=C1C[C@@]23CC[C@H]4[C@@](C)(CCC[C@@]4(C)C(=O)O[C@@H]4O[C@H](CO)[C@@H](O)[C@H](O)[C@H]4O)[C@@H]2CC[C@]1(O[C@@H]1O[C@H](CO)[C@@H](O)[C@H](O)[C@H]1O[C@@H]1O[C@H](CO)[C@@H](O)[C@H](O)[C@H]1O)C3` [stevioside], the “times sweeter than sucrose” value is 100-150 times.

As for Rebaudioside C, the “times sweeter than sucrose” value was 40-60 times.

On to `C=C1C[C@@]23CC[C@H]4[C@@](C)(CCC[C@@]4(C)C(=O)O[C@@H]4O[C@H](CO)[C@@H](O)[C@H](O)[C@H]4O)[C@@H]2CC[C@]1(O[C@@H]1O[C@H](CO)[C@@H](O)[C@H](O)[C@H]1O[C@@H]1O[C@@H](C)[C@H](O)[C@@H](O)[C@H]1O)C3` [Dulcoside A], for which the “times sweeter than sucrose” value is given as “about 30 times”.
